Reference: patent US20070128217A1 (priority 2003, published 2007)

How the values were obtained:
[1] = test system: rabbit serum obtained by immunizing a rabbit with the SARS-CoV strain Frankfurt 1; assay type: binding; set-up: Binding of a rabbit serum to linear peptides / Binding of a rabbit serum to looped peptides / Rabbit serum linear peptides / Rabbit serum looped peptides / Binding of a rabbit serum to linear peptides of protein N of SARS-CoV Urbani (Rabbit serum linear peptides) / Binding of a rabbit serum to looped/cyclic peptides of protein N of SARS-CoV Urbani (Rabbit serum looped peptides): unit not given here
[2] = test system: control sera (pooled serum of ten healthy LUMC hospital workers; commercial negative donor pooled serum from the Dutch bloodbank); assay type: binding, human; set-up: Binding of Control serum LUMC to linear peptides / Binding of Control serum Blood-bank to linear peptides / Binding of Control serum LUMC to looped peptides / Binding of Control Serum Blood-Bank to Looped peptides / Binding of Control serum LUMC to linear peptides of the protein M of SARS-CoV Urbani / Binding of Control serum Blood-bank to linear peptides of the protein M of SARS-CoV Urbani / Binding of Control serum LUMC to looped peptides of the protein M of SARS-CoV Urbani / Binding of Control Serum Blood-Bank to Looped peptides of the protein M of SARS-CoV Urbani: unit not given here
[3] = test system: recombinant human anti-SARS-CoV antibody 03-018; assay type: binding; set-up: Binding of antibody 03-018 to linear peptides of the N protein of SARS-CoV Urbani / Binding of antibody 03-018 to looped/cyclic peptides of the N protein of SARS-CoV Urbani: unit not given here
[4] = test system: antibodies in sera from SARS patients (sera 1a, 1b, 2, 6, 37, 62, London, SARS-yellow, SARS-green); assay type: binding, human; set-up: Binding of serum 6 to linear peptides of protein X1 of SARS-CoV Urbani / Binding of serum 37 to linear peptides of protein X1 of SARS-CoV Urbani / Binding of serum 6 to looped/cyclic peptide (PEPSCAN-ELISA) / Binding of serum 37 to looped/cyclic peptide (PEPSCAN-ELISA) / Binding of serum 37 to looped/cyclic peptides of protein X1 of SARS-CoV Urbani / Binding of serum 6 to linear peptides of protein X2 / Binding of serum 37 to linear peptides of protein X2 / Binding of serum 37 to looped/cyclic peptides of protein X2 of SARS-CoV Urbani / Binding of serum 6 to linear peptides of protein M of SARS-CoV Urbani / Binding of serum 37 to linear peptides of protein M of SARS-CoV Urbani / Binding of serum 6 to looped/cyclic peptides of protein M of SARS-CoV Urbani / Binding of serum 37 to looped/cyclic peptides of protein M of SARS-CoV Urbani / Binding of serum 6 to linear peptides of protein X3 of SARS-CoV Urbani / Binding of serum 37 to linear peptides of protein X3 of SARS-CoV Urbani / Binding of serum 37 to looped/cyclic peptides of protein X3 of SARS-CoV Urbani / Binding of serum 6 to linear peptides of protein X4 of SARS-CoV Urbani / Binding of serum 37 to linear peptides of protein X4 of SARS-CoV Urbani / Binding of serum 37 to looped/cyclic peptides of protein X4 of SARS-CoV Urbani / Binding of serum 6 to linear peptides of protein X5 of SARS-CoV Urbani / Binding of serum 37 to linear peptides of protein X5 of SARS-CoV Urbani / Binding of serum 37 to looped/cyclic peptides of protein X5 of SARS-CoV Urbani / Binding of serum 6 to linear peptides of protein N of SARS-CoV Urbani / Binding of serum 37 to linear peptides of protein N of SARS-CoV Urbani / Binding of serum 6 to linear peptide (PEPSCAN-ELISA) / Binding of serum 1a to looped/cyclic peptides of protein N of SARS-CoV Urbani / Binding of serum 1b to looped/cyclic peptides of protein N of SARS-CoV Urbani / Binding of serum 2 to looped/cyclic peptides of protein N of SARS-CoV Urbani / Binding of serum 6 to looped/cyclic peptides of protein N of SARS-CoV Urbani / Binding of serum 37 to looped/cyclic peptides of protein N of SARS-CoV Urbani / Binding of serum 62 to looped/cyclic peptides of protein N of SARS-CoV Urbani / Binding of serum London to looped/cyclic peptides of protein N of SARS-CoV Urbani / Binding of serum SARS-green to looped/cyclic peptides of protein N of SARS-CoV Urbani: unit not given here

| Sequence | Binding of a rabbit serum to linear peptides of protein N of SARS-CoV Urbani (Rabbit serum linear peptides) [1] | Binding of a rabbit serum to looped/cyclic peptides of protein N of SARS-CoV Urbani (Rabbit serum looped peptides) [1] | Binding of Control Serum Blood-Bank to Looped peptides [2] | Binding of Control serum Blood-bank to linear peptides [2] | Binding of Control serum LUMC to linear peptides [2] | Binding of Control serum LUMC to looped peptides [2] | Binding of antibody 03-018 to linear peptides of the N protein of SARS-CoV Urbani [3] | Binding of antibody 03-018 to looped/cyclic peptides of the N protein of SARS-CoV Urbani [3] | Binding of serum 1a to linear peptides of protein N of SARS-CoV Urbani [4] | Binding of serum 1a to looped/cyclic peptides of protein N of SARS-CoV Urbani [4] | Binding of serum 1b to linear peptides of protein N of SARS-CoV Urbani [4] | Binding of serum 1b to looped/cyclic peptides of protein N of SARS-CoV Urbani [4] | Binding of serum 2 to linear peptides of protein N of SARS-CoV Urbani [4] | Binding of serum 2 to looped/cyclic peptides of protein N of SARS-CoV Urbani [4] | Binding of serum 6 to linear peptides of protein N of SARS-CoV Urbani [4] | Binding of serum 6 to looped/cyclic peptides of protein N of SARS-CoV Urbani [4] | Binding of serum 37 to linear peptides of protein N of SARS-CoV Urbani [4] | Binding of serum 37 to looped/cyclic peptides of protein N of SARS-CoV Urbani [4] | Binding of serum 62 to linear peptides of protein N of SARS-CoV Urbani [4] | Binding of serum 62 to looped/cyclic peptides of protein N of SARS-CoV Urbani [4] | further results |
| --- | --- | --- | --- | --- | --- | --- | --- | --- | --- | --- | --- | --- | --- | --- | --- | --- | --- | --- | --- | --- | --- |
| NNQNGGRNGARPKQR | 0.3 | 0.7 | 0.5 | 0.9 | 0.8 | 0.6 | 0.2 | 0.2 | 0.2 | 0.2 | 0.2 | 0.1 | 0.2 | 0.2 | 0.3 | 0.2 | 0.7 | 0.4 | 0.8 | 0.3 | Binding of serum London to linear peptides of protein N of SARS-CoV Urbani [4]: 0.5; Binding of serum London to looped/cyclic peptides of protein N of SARS-CoV Urbani [4]: 0.3; Binding of serum SARS-green to linear peptides of protein N of SARS-CoV Urbani [4]: 0.5; Binding of serum SARS-green to looped/cyclic peptides of protein N of SARS-CoV Urbani [4]: 0.1; Binding of serum SARS-yellow to linear peptides of protein N of SARS-CoV Urbani [4]: 0.6; Binding of serum SARS-yellow to looped/cyclic peptides of protein N of SARS-CoV Urbani [4]: 0.3 |
| NNTASWFTALTQHGK | 0.1 | 0.3 | 0.5 | 0.6 | 0.7 | 0.4 | 0.1 | 0.2 | 0.2 | 0.2 | 0.1 | 0.1 | 0.2 | 0.2 | 0.1 | 0.1 | 0.7 | 0.4 | 0.6 | 0.2 | Binding of serum London to linear peptides of protein N of SARS-CoV Urbani [4]: 0.4; Binding of serum London to looped/cyclic peptides of protein N of SARS-CoV Urbani [4]: 0.2; Binding of serum SARS-green to linear peptides of protein N of SARS-CoV Urbani [4]: 0.4; Binding of serum SARS-green to looped/cyclic peptides of protein N of SARS-CoV Urbani [4]: 0.1; Binding of serum SARS-yellow to linear peptides of protein N of SARS-CoV Urbani [4]: 0.5; Binding of serum SARS-yellow to looped/cyclic peptides of protein N of SARS-CoV Urbani [4]: 0.1 |
| NPNNNAATVLQLPQG | 0.1 | 0.3 | 0.8 | 0.9 | 0.9 | 0.9 | 0.1 | 0.3 | 0.4 | 0.4 | 0.2 | 0.4 | 0.4 | 0.5 | 0.3 | 0.3 | 0.8 | 0.9 | 0.9 | 0.9 | Binding of serum London to linear peptides of protein N of SARS-CoV Urbani [4]: 0.8; Binding of serum London to looped/cyclic peptides of protein N of SARS-CoV Urbani [4]: 0.5; Binding of serum SARS-green to linear peptides of protein N of SARS-CoV Urbani [4]: 0.6; Binding of serum SARS-green to looped/cyclic peptides of protein N of SARS-CoV Urbani [4]: 0.7; Binding of serum SARS-yellow to linear peptides of protein N of SARS-CoV Urbani [4]: 0.8; Binding of serum SARS-yellow to looped/cyclic peptides of protein N of SARS-CoV Urbani [4]: 0.5 |
